Experimental data published in US11267826B2, “Penicillin-binding protein inhibitors” (priority 2017, dated 2022).

Legend:
E. coli K12 PBP1a/b = test: Bocillin FL competition binding assay, PBP1a/1b combined; set-up: species or system Escherichia coli K12; details: 15 min pre-incubation, PBP 1a/1b combined
Procedure: (§1) To determine the ability of test compounds to bind Penicillin Binding Proteins (PBPs), a competition binding assay using Bocillin FL (fluorescent derivative of penicillin V) was adapted from the classical method used to assess PBP potency of beta-lactams.
(§2) Penicillin binding proteins were isolated from Escherichia coli K12 by growth of Escherichia coli K12 from a single colony in 4 L of Luria-Bertani (LB) broth at 35° C. and 250 rpm to an OD600 nm of 0.5. The cells were harvested by centrifugation at 7,000×g for 10 min. at 4° C. Cells were resuspended and washed in 50 mM potassium phosphate pH 7.5. The cells were re-suspended in sonication buffer [50 mM Tris-HCl pH 7.5, 1 mM MgCl2, 1 mM beta-mercaptoethanol, and 5 μg/mL DNAse I] and sonicated by 4 passes of 30 seconds at 45 W on ice. The sample was clarified by centrifugation at 3,000×g to remove cell debris and unbroken cells and supernatant containing the membrane proteins was retained. The membrane proteins including the PBPs were further purified from soluble constituents by an ultracentrifugation step at 100,000×g for 30 min. at 4° C. The membrane proteins are washed twice with 10 mM sodium phosphate pH 7, resuspended in a volume of 5 mL, quantitated by BCA assay, adjusted to […] and frozen at −80° C. until use.
(§3) The adapted Bocillin FL competition binding method described herein incorporates a 15 min. pre-incubation of test compound with isolated PBPs to attempt to balance the difference in mechanism of inhibition between beta-lactams (largely irreversible covalent bond to active site Serine) and the boron-containing PBP inhibitor test compounds (reversible covalent bond to active site Serine). Briefly, 50 μL reactions consisted of 100 μg's of total membrane protein extracts containing PBPs incubated with a dilution series of test compound ranging from 0.005 μg/mL to 2,480 μg/mL in 10 mM sodium phosphate pH7 containing 350 mM NaCl. Thirty minute reactions at 35° C. were initiated by addition of […] Bocillin FL, quenched by addition of SDS-PAGE loading buffer containing sodium dodecyl sulfate (SDS) and heated for 15 minutes at 95° C. to denature proteins in preparation for SDS-polyacrylamide gel electrophoresis. The Bocillin FL labeled PBPs are then separated by SDS-PAGE in Novex NuPage 10% Bis-Tris pre-cast gels (Invitrogen). The SDS-PAGE gel, post-electrophoresis, is then washed in water to remove excess SDS for 10 minutes at room temperature and placed on the scanning bed of a GE Healthcare/Amersham Biosciences Storm 860 fluorescence scanner. The excitation wavelength is in the blue spectrum at 450 nm and the emission at 520 nm is captured by the instrument. Effective PBP inhibitors are detected by a reduction in Bocillin FL labeling of the particular PBP over the dose range of test compound in a dose-responsive manner. High molecular weight PBP 1a/1b are not resolved by these gels, thus we report HMW PBP binding results in μg/mL for PBPs 1a/1b combined as well as for PBP2 and PBP3.
(§4) Representative results are shown in Table 2, where A represents a potency of >1000 μg/mL, B represents a potency between 64 and 1000 μg/mL inclusive, and C represents a potency of <64 μg/mL. NT=Not Tested.

E. coli PBP2 = molecular target: T1, E. coli PBP2 (Escherichia coli, UniProt P0AD65); test: Bocillin FL competition binding assay, PBP2; set-up: species or system Escherichia coli K12; details: 15 min pre-incubation
T1 construct: 100 μg's of total membrane protein extracts containing PBPs; endogenous in cells; host or cells: Escherichia coli K12, membrane protein fraction
Procedure: as §1, §2, §3, §4

E. coli PBP3 = molecular target: T2, E. coli PBP3 (Escherichia coli, UniProt P0AD68); test: Bocillin FL competition binding assay, PBP3; set-up: species or system Escherichia coli K12; details: 15 min pre-incubation
T2 construct: 100 μg's of total membrane protein extracts containing PBPs; endogenous in cells; host or cells: Escherichia coli K12, membrane protein fraction
Procedure: as §1, §2, §3, §4

S. aureus ATCC 29213 = test: Broth microdilution MIC assay, S. aureus; type: cell-based; details: Staphylococcus aureus, ATCC29213; broth microdilution, 16-20 hours at 37° C.; read-out: S. aureus 29213 MIC
Method in brief: (§5)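 MIC taken by eye as the lowest compound concentration showing no growth after 16-20 hours at 37° C. Cultures grown 3-5 h in cation-supplemented Mueller-Hinton broth were added to 2-fold compound dilution series at a starting density of 5×10^5 CFU/mL, following CLSI methods.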

[1] = system: hyper-permeable E. coli 901C; test: Broth microdilution MIC assay, hyper-permeable E. coli; type: cell-based; details: Escherichia coli, read-out: E. coli 901C MIC
Method in brief: as §5

T2 sequence (P0AD68 1-577): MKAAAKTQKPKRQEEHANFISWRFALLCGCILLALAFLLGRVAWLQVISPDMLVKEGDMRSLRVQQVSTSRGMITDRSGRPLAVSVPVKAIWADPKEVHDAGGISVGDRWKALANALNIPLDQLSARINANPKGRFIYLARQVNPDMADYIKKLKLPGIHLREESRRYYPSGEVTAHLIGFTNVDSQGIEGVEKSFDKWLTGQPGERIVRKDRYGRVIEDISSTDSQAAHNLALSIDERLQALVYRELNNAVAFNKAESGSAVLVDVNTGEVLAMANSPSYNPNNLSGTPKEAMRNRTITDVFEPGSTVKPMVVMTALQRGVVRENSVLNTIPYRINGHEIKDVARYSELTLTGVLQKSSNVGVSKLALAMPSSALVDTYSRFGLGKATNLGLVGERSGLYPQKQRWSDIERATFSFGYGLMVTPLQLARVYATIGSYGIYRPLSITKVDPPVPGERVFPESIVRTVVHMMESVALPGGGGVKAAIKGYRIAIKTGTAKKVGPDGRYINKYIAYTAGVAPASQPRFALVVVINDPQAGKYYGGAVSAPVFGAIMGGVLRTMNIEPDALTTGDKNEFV
T1 sequence (P0AD65 whole entry): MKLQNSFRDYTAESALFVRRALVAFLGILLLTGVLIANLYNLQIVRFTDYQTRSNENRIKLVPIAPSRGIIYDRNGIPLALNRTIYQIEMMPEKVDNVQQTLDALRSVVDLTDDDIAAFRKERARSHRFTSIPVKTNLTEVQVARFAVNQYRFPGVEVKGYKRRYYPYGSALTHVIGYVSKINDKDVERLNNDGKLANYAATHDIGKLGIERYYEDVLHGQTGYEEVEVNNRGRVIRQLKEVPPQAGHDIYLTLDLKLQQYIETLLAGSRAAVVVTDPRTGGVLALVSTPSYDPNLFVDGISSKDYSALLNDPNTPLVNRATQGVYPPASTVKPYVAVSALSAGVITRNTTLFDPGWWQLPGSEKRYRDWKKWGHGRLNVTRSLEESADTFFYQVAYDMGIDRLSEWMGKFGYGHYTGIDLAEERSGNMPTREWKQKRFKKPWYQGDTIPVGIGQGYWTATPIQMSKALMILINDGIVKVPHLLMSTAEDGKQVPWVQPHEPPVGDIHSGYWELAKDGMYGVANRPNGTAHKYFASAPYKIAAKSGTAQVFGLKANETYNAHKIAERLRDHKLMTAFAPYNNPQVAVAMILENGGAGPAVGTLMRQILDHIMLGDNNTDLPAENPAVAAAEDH

Structure (SMILES)	E. coli K12 PBP1a/b Potency (E. coli K12 PBP1a/b)	E. coli PBP2 Potency (E. coli PBP2)	E. coli PBP3 Potency (E. coli PBP3)	MIC (S. aureus ATCC 29213) [µg/mL]	MIC [1] [µg/mL]
CC(C)(O/N=C(\C(=O)N[C@H]1Cc2cccc(C(=O)O)c2OB1O)c1csc(N)n1)C(=O)N[C@@H](CO)C(=O)O [Example 74, (R)-3-((Z)-2-(2-aminothiazol-4-yl)-2-(((1-(((S)-1-carboxy-2-hydroxyethyl)amino)-2-methyl-1-oxopropan-2-yl)oxy)imino)acetamido)-2-hydroxy-3,4-dihydro-2H-benzo[e][1,2]oxaborinine-8-carboxylic Acid]	C (C represents a potency of <64 μg/mL)	C (C represents a potency of <64 μg/mL)	C (C represents a potency of <64 μg/mL)	> 128	< 64
CC(O/N=C(\C(=O)N[C@H]1Cc2cccc(C(=O)O)c2OB1O)c1csc(N)n1)C(N)=O (stereo partly drawn) [Example 73, (3R)-3-((Z)-2-(((1-amino-1-oxopropan-2-yl)oxy)imino)-2-(2-aminothiazol-4-yl)acetamido)-2-hydroxy-3,4-dihydro-2H-benzo[e][1,2]oxaborinine-8-carboxylic Acid]	C (C represents a potency of <64 μg/mL)	C (C represents a potency of <64 μg/mL)	C (C represents a potency of <64 μg/mL)	> 128	< 64
NCCCCCNC(=O)CO/N=C(\C(=O)N[C@H]1Cc2cccc(C(=O)O)c2OB1O)c1csc(N)n1 [Example 67, (R,Z)-3-(2-((2-((5-aminopentyl)amino)-2-oxoethoxy)imino)-2-(2-aminothiazol-4-yl)acetamido)-2-hydroxy-3,4-dihydro-2H-benzo[e][1,2]oxaborinine-8-carboxylic Acid]	B (B represents a potency between 64 and 1000 μg/mL inclusive)	B (B represents a potency between 64 and 1000 μg/mL inclusive)	C (C represents a potency of <64 μg/mL)	> 128	< 64
CNC(=O)CO/N=C(\C(=O)N[C@H]1Cc2cccc(C(=O)O)c2OB1O)c1csc(N)n1 [Example 57, (R,Z)-3-(2-(2-aminothiazol-4-yl)-2-((2-(methylamino)-2-oxoethoxy)imino)acetamido)-2-hydroxy-3,4-dihydro-2H-benzo[e][1,2]oxaborinine-8-carboxylic Acid]	C (C represents a potency of <64 μg/mL)	B (B represents a potency between 64 and 1000 μg/mL inclusive)	C (C represents a potency of <64 μg/mL)	> 128	< 64
Nc1nc(/C(=N/O)C(=O)N[C@H]2Cc3cc(CCC(=O)O)cc(C(=O)O)c3OB2O)cs1 [Example 37, (R,Z)-3-(2-(2-aminothiazol-4-yl)-2-(hydroxyimino)acetamido)-6-(2-carboxyethyl)-2-hydroxy-3,4-dihydro-2H-benzo[e][1,2]oxaborinine-8-carboxylic Acid]	B (B represents a potency between 64 and 1000 μg/mL inclusive)	C (C represents a potency of <64 μg/mL)	B (B represents a potency between 64 and 1000 μg/mL inclusive)	64 to 128	< 64
Nc1nc(/C(=C\C(=O)O)C(=O)N[C@H]2Cc3cccc(C(=O)O)c3OB2O)cs1 [Example 88, (R,E)-3-(2-(2-aminothiazol-4-yl)-3-carboxyacrylamido)-2-hydroxy-3,4-dihydro-2H-benzo[e][1,2]oxaborinine-8-carboxylic Acid]	A (A represents a potency of >1000 μg/mL)	B (B represents a potency between 64 and 1000 μg/mL inclusive)	B (B represents a potency between 64 and 1000 μg/mL inclusive)	> 128	64 to 128
Nc1nc(/C(=N/O)C(=O)N[C@H]2Cc3cccc(C(=O)O)c3OB2O)c(Cl)s1 [Example 17, (R,Z)-3-(2-(2-amino-5-chlorothiazol-4-yl)-2-(hydroxyimino)acetamido)-2-hydroxy-3,4-dihydro-2H-benzo[e][1,2]oxaborinine-8-carboxylic Acid]	B (B represents a potency between 64 and 1000 μg/mL inclusive)	B (B represents a potency between 64 and 1000 μg/mL inclusive)	B (B represents a potency between 64 and 1000 μg/mL inclusive)	< 64	64 to 128
Nc1nc(/C(=N/OCCOc2ccccc2)C(=O)N[C@H]2Cc3cccc(C(=O)O)c3OB2O)cs1 [Example 50, (R,Z)-3-(2-(2-aminothiazol-4-yl)-2-((2-phenoxyethoxy)imino)acetamido)-2-hydroxy-3,4-dihydro-2H-benzo[e][1,2]oxaborinine-8-carboxylic Acid]	B (B represents a potency between 64 and 1000 μg/mL inclusive)	B (B represents a potency between 64 and 1000 μg/mL inclusive)	B (B represents a potency between 64 and 1000 μg/mL inclusive)	64 to 128	< 64
Nc1nc(/C(=N/O)C(=O)N[C@H]2Cc3cc(CO)cc(C(=O)O)c3OB2O)cs1 [Example 35, (R,Z)-3-(2-(2-aminothiazol-4-yl)-2-(hydroxyimino)acetamido)-2-hydroxy-6-(hydroxymethyl)-3,4-dihydro-2H-benzo[e][1,2]oxaborinine-8-carboxylic Acid]	C (C represents a potency of <64 μg/mL)	A (A represents a potency of >1000 μg/mL)	B (B represents a potency between 64 and 1000 μg/mL inclusive)	64 to 128	> 128
N#CC1CCC(NC(=O)CO/N=C(\C(=O)N[C@H]2Cc3cccc(C(=O)O)c3OB2O)c2csc(N)n2)CC1 (stereo partly drawn) [Example 62, (R)-3-((Z)-2-(2-aminothiazol-4-yl)-2-((2-(((1r,4R)-4-cyanocyclohexyl)amino)-2-oxoethoxy)imino)acetamido)-2-hydroxy-3,4-dihydro-2H-benzo[e][1,2]oxaborinine-8-carboxylic Acid]	B (B represents a potency between 64 and 1000 μg/mL inclusive)	B (B represents a potency between 64 and 1000 μg/mL inclusive)	C (C represents a potency of <64 μg/mL)	> 128	< 64
CNC(=O)C(C)O/N=C(\C(=O)N[C@H]1Cc2cccc(C(=O)O)c2OB1O)c1csc(N)n1 (stereo partly drawn) [Example 70, (3R)-3-((Z)-2-(2-aminothiazol-4-yl)-2-(((1-(methylamino)-1-oxopropan-2-yl)oxy)imino)acetamido)-2-hydroxy-3,4-dihydro-2H-benzo[e][1,2]oxaborinine-8-carboxylic Acid]	C (C represents a potency of <64 μg/mL)	C (C represents a potency of <64 μg/mL)	C (C represents a potency of <64 μg/mL)	> 128	< 64
